These results are taken from ChEMBL document CHEMBL4385634, “Melanogenic inhibitory effects of Triangularin in B16F0 melanoma cells, in vitro and molecular docking studies” (Bioorg Med Chem, 2019).

Molecules are shown by their SMILES.

For data set [1], the target named is T1, Tyrosinase (Mus musculus, UniProt P11344).
T1 sequence (P11344 whole entry): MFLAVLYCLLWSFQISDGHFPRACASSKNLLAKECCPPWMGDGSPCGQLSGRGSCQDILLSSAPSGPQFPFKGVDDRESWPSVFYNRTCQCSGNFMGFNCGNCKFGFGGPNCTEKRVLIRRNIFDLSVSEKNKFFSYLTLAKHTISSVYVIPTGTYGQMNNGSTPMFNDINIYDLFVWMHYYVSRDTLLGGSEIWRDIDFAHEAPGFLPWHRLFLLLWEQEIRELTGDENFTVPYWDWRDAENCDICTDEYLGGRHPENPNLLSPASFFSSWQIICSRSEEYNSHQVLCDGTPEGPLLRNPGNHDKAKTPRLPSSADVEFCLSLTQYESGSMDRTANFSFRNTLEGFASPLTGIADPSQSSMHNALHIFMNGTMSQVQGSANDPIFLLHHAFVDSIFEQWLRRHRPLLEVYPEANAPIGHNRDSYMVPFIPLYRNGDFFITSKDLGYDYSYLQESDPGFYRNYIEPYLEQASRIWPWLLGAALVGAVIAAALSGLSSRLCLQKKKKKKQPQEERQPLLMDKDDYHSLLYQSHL
Description: Inhibition of tyrosinase in mouse B16F0 cells using L-DOPA as substrate by UV-Visible spectrophotometric analysis

The target of data set [2] is T2, Tyrosinase (Mus musculus) (UniProt P11344).
T2 sequence (whole entry): T1 sequence (P11344 whole entry)
Description: Inhibition of intracellular tyrosinase in mouse B16F0 cells at 1 uM using L-DOPA as substrate preincubated with compound followed by substrate addition and measured after 20 mins by UV-Visible spectrophotometric analysis relative to control. Format: cell-based.

Data set [3] has as its target T2, Tyrosinase (Mus musculus). Description: Inhibition of intracellular tyrosinase in mouse B16F0 cells using L-DOPA as substrate preincubated with compound followed by substrate addition and measured after 20 mins by UV-Visible spectrophotometric analysis relative to control. Type of data set: cell-based.
Data set [4] addresses T2, Tyrosinase (Mus musculus). Description: Inhibition of intracellular tyrosinase in mouse B16F0 cells at 25 uM using L-DOPA as substrate preincubated with compound followed by substrate addition and measured after 20 mins by UV-Visible spectrophotometric analysis relative to control. Type of data set: cell-based.
The target of data set [5] is T2, Tyrosinase (Mus musculus). The experiment in a line: Potency index, ratio of compound effect to KA effect for inhibition of intracellular tyrosinase in mouse B16F0 cells using L-DOPA as substrate preincubated with compound followed by substrate addition and measured after 20 mins by UV-Visible spectrophotometric analysis. Type of data set: cell-based.
Data set [6] deals with T3, Tyrosinase (Agaricus bisporus, UniProt O42713).
T3 sequence (O42713 whole entry): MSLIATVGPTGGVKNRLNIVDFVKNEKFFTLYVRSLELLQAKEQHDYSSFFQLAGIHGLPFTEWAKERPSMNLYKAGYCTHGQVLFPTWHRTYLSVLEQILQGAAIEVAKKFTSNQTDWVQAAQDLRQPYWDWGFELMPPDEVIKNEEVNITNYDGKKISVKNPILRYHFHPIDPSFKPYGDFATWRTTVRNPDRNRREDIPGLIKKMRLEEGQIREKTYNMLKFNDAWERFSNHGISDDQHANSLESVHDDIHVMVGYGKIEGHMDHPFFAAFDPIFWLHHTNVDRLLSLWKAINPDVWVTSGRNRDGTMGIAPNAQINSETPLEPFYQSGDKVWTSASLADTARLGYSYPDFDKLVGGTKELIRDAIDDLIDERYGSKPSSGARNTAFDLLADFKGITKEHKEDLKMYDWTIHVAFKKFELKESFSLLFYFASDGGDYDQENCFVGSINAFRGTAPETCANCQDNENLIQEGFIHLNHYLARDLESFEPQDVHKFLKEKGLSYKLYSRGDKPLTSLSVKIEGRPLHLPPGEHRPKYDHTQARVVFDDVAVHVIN
Description: Inhibition of mushroom tyrosinase diphenolase activity using L-dopa as substrate preincubated for 10 mins followed by substrate addition by UV-Visible spectrophotometric analysis.

Data set [7] deals with T2, Tyrosinase (Mus musculus). The experiment in a line: Inhibition of intracellular tyrosinase in mouse B16F0 cells at 50 uM using L-DOPA as substrate preincubated with compound followed by substrate addition and measured after 20 mins by UV-Visible spectrophotometric analysis relative to control. Format: cell-based.
Data set [8] concerns the target T2, Tyrosinase (Mus musculus). The experiment in a line: Potency index, ratio of compound effect to KA effect for inhibition of tyrosinase in mouse B16F0 cells at 10 uM using L-DOPA as substrate. Format: cell-based.
Data set [9] has as its target T2, Tyrosinase (Mus musculus). The experiment in a line: Potency index, ratio of IC50 for KA to IC50 for test compound for inhibition of tyrosinase in mouse B16F0 cells using L-DOPA as substrate by UV-Visible spectrophotometric analysis. Type of data set: cell-based.
For data set [10], the target named is T2, Tyrosinase (Mus musculus). Description: Inhibition of intracellular tyrosinase in mouse B16F0 cells at 100 uM using L-DOPA as substrate preincubated with compound followed by substrate addition and measured after 20 mins by UV-Visible spectrophotometric analysis relative to control. Type of data set: cell-based.
Data set [11] deals with T2, Tyrosinase (Mus musculus). The experiment in a line: Potency index, ratio of IC50 for KA to IC50 for test compound for inhibition of tyrosinase in mouse B16F0 cells assessed as reduction in melanin production incubated for 24 hrs by spectrophotometric analysis. Format: cell-based.
Data set [12] concerns the target T2, Tyrosinase (Mus musculus). Description: Inhibition of intracellular tyrosinase in mouse B16F0 cells at 5 uM using L-DOPA as substrate preincubated with compound followed by substrate addition and measured after 20 mins by UV-Visible spectrophotometric analysis relative to control. Format: cell-based.
For data set [13], the target named is T1, Tyrosinase. The experiment in a line: Inhibition of tyrosinase in mouse B16F0 cells assessed as reduction in melanin production incubated for 24 hrs by spectrophotometric analysis. Format: cell-based.
The subject of the next data set is B16-F0. Description: (§1) Cytotoxicity against mouse B16F0 cells incubated for 24 hrs by MTT assay. Format: cell-based. Particulars: b16-f0, 24 h. On the technique in general: Formazan colour is commonly taken as a measure of viable cells.
The nature of data set [14]: as §1. Format: cell-based, B16-F0. Particulars: B16F0 cells, read-out: MNCC.
In data set [15] the target is T4, Tyrosinase (Agaricus bisporus) (UniProt O42713).
T4 sequence (whole entry): T3 sequence (O42713 whole entry)
Description: Potency index, ratio of IC50 for KA to IC50 for test compound for inhibition of mushroom tyrosinase diphenolase activity using L-dopa as substrate preincubated for 10 mins followed by substrate addition by UV-Visible spectrophotometric analysis.

The target in data set [16] is T2, Tyrosinase (Mus musculus). Description: Inhibition of intracellular tyrosinase in mouse B16F0 cells at 10 uM using L-DOPA as substrate preincubated with compound followed by substrate addition and measured after 20 mins by UV-Visible spectrophotometric analysis relative to control. Type of data set: cell-based.

What is called IC50 is the concentration that inhibits the measured activity by half. As a reminder, the inhibition is how much of the control response was suppressed. For `COc1cc(O)c(C(=O)/C=C/c2ccccc2)c(O)c1C`, the 50% inhibitory concentration (IC50) at Tyrosinase [1] is 30.1 µM; on Tyrosinase [6], 63.1 µM; on Tyrosinase [13] it was 25 µM. The inhibition is 3.9% in [2]; “Dose-dependent effect” in [3]; 13% in data set [4]; 16.2% in [7]; 20.1% in data set [10]; 6.1% in data set [12]. Besides, the inhibition in data set [16] was 7.8%. The Ratio in [5] stood at 5; in data set [8] it was 6; in data set [9], 3. For the same compound, the Ratio IC50 in data set [11] was found to be 8; in data set [15], 2. In addition, the Activity result with B16-F0 is recorded as “Dose-dependent effect”. Besides, in [14], the MNTC at 24 h turned out to be 100 µM.
